These results are taken from ChEMBL document CHEMBL3217480, “Cytotoxic sugar analogues of an optimized novobiocin scaffold” (Medchemcomm, 2010).

Usually IC50 stands for the midpoint of a concentration-inhibition curve.

The structures appear in SMILES notation. The source made the active and inactive calls. No cut-off for these calls is given here.

In series [1] the test system is MCF7. The experiment in a line: Antiproliferative activity against estrogen receptor positive human MCF7 cells after 72 hrs by MTS assay. Type of series: functional, cell-based. To be noted: MCF7, 72 h. In general terms: Tetrazolium dyes change colour on reduction, which living cells bring about.
The nature of series [2]: Antiproliferative activity against estrogen receptor-negative, Her2 overexpressing human SKBR3 cells after 72 hrs by MTS assay. The series is classed as functional, cell-based. To be noted: SK-BR-3, 72 h.
Series [3] has as its system MCF7. The experiment in a line: Effect on actin expression in human MCF7 cells at 0.5 to 25 uM after 24 hrs by Western blot analysis. The series is classed as ADME, cell-based. Conditions: mcf7, 24 h. For orientation: In western blotting, separated proteins are transferred to a membrane and probed.
Series [4] concerns the target Heat shock protein HSP 90-beta (Homo sapiens) (UniProt P08238). The experiment in a line: Inhibition of HSP90-dependent client protein Akt degradation in human MCF7 cells after 24 hrs by Western blot analysis. The series is classed as cell-based.
For series [5] the target is unchanged. The experiment in a line: Inhibition of HSP90-dependent client protein Her-2 degradation in human MCF7 cells after 24 hrs by Western blot analysis. The series is classed as cell-based.
Series [6] has the same target. The series can be described thus: Inhibition of HSP90-dependent client protein Raf degradation in human MCF7 cells after 24 hrs by Western blot analysis. The series is classed as cell-based.
Series [7] has as its system MCF7. The series can be described thus: Effect on Hsp90 protein expression in human MCF7 cells at 0.5 to 25 uM after 24 hrs by Western blot analysis. The series is classed as functional, cell-based.
Series [8] is described as follows: Inhibition of human SKBR3 cell proliferation. The series is classed as functional, cell-based. To be noted: SK-BR-3.
Series [9] can be described thus: Inhibition of human Jurkat T cell cell proliferation. Type of series: functional, cell-based.
The test system of another series is LNCaP. The experiment in a line: Inhibition of human LNCAP cell proliferation. Type of series: functional, cell-based.
Series [10] in a line: Inhibition of human PL45 cell proliferation. Type of series: functional, cell-based.
In another series the test system is HCT-116. The series can be described thus: Inhibition of human HCT116 cell proliferation. Type of series: functional, cell-based.
A further series deals with PC-3. The experiment in a line: Inhibition of human PC3 cell proliferation. The series is classed as functional, cell-based.

Heat shock protein HSP 90-beta (Homo sapiens), sequence (P08238 whole entry): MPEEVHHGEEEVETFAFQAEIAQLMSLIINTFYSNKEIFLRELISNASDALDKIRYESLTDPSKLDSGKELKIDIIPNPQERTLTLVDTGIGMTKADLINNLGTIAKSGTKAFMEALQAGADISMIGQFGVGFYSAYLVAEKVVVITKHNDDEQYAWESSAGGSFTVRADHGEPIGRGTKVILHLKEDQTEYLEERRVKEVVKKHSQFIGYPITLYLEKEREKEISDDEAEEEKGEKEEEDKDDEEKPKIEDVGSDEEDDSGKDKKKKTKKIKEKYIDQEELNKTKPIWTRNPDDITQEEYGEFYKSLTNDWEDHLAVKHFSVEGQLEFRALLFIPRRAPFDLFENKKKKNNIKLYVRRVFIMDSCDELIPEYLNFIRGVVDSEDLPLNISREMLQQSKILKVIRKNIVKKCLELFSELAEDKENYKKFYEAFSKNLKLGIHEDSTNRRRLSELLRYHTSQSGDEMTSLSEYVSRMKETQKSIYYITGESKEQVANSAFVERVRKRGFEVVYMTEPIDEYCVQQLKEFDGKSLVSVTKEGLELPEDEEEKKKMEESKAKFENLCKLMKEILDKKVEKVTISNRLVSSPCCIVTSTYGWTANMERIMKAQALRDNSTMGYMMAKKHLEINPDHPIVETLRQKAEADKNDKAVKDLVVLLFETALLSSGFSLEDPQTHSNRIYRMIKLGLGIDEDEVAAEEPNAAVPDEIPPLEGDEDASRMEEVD

As to `COc1cccc(-c2cc(C(=O)Nc3cc4ccc(OC5CCCN(C(C)=O)C5)c(C)c4oc3=O)ccc2OC)c1` (centres undefined), the IC50 is 9.18 µM in the series with MCF7 [1] and 10.8 µM in series [2].
On to `CNC(=O)Oc1ccc2cc(NC(=O)c3ccc(OC)c(-c4cccc(OC)c4)c3)c(=O)oc2c1C`, for which the Activity entry with MCF7 [3] is listed as “Non-toxic”. Also, the inhibition result in [4], in [5] and in [6] was “Dose-dependent effect” each time. Moreover, the result in the series on MCF7 [7] was inactive.
Take `COc1cccc(-c2cc(C(=O)Nc3cc4ccc(O[C@@H]5OC(C)(C)[C@H](OC)[C@@H](O)[C@H]5O)c(C)c4oc3=O)ccc2OC)c1`: the IC50 in series [8] was 7.5 µM; in the series with MCF7 [1], 18.7 µM; in [2], 7.5 µM.
Consider `COc1cccc(-c2cc(C(=O)Nc3cc4ccc(OC5CCN(C)CC5)c(C)c4oc3=O)ccc2OC)c1`, for which, in the series on MCF7 [3], the Activity result is “Non-toxic”. In addition, the inhibition result in series [4], in [5] and in series [6] was “Dose-dependent effect” in each case. The outcome with MCF7 [7] was inactive.
For `COc1cccc(-c2cc(C(=O)Nc3cc4ccc(O[C@H]5C[C@H](O)CCO5)c(C)c4oc3=O)ccc2OC)c1`, the IC50 in the series on MCF7 [1] came out at 11.2 µM; in series [2], 9.28 µM.
For `COc1cccc(-c2cc(C(=O)Nc3cc4ccc(O[C@@H]5CCC[C@@H](O)[C@H]5O)c(C)c4oc3=O)ccc2OC)c1`, in that order: over 100 µM and over 100 µM.
Take `COc1cccc(-c2cc(C(=O)Nc3cc4cc(OC)c(O[C@@H]5OC(C)(C)[C@H](OC)[C@@H](O)[C@H]5O)c(C)c4oc3=O)ccc2OC)c1`: the IC50 is 58.8 µM in [8], over 100 µM in the series on MCF7 [1] and 58.8 µM in series [2].
As for `COc1cccc(-c2cc(C(=O)Nc3cc4cc(OC)c(OC(C)=O)c(C)c4oc3=O)ccc2OC)c1`, the IC50 in series [9] is 0.42 µM; with LNCaP, 0.42 µM; in series [8], 5.72 µM; in the series with MCF7 [1], 1.5 µM; in [10], 4.1 µM; with HCT-116, 0.52 µM. Further, it took 0.97 µM to reach half-maximal inhibition with PC-3 (IC50).
